Species: Rattus norvegicus
Assay: Open TG-GATES - Regimen: Single
Type: toxicity, organism-based, Sprague-Dawley
Design: regimen Single, gender Male, age 6 weeks
Conditions: in vivo, po, 30 mg/kg, route gavage, dose level Middle; for APTT / Bas / Eos / Fbg / Hb / Ht / Lym / MCH / MCHC / MCV / Mono / Neu / PT / Plat / RBC / Ret / WBC: tissue Blood; for KIDNEY_L / KIDNEY_R / KIDNEY_TOTAL: tissue Kidney; for LIVER: tissue Liver; for A/G / ALP / ALT / AST / BUN / CRE / Ca / Cl / DBIL / GLC / IP / K / LDH / Na / PL / RALB / TBIL / TC / TG / TP / gamma-GTP: tissue Plasma

CCN(CC)N=O [N-NITROSODIETHYLAMINE]
TERMINAL_BW (3 h): 220.7 g
APTT (3 h): 19.6 s
Bas (3 h): 0%
Eos (3 h): 1%
Fbg (3 h): 200.2 mg/dL
Hb (3 h): 13.1 g/dL
Ht (3 h): 37.7%
Lym (3 h): 80.2%
MCH (3 h): 21.4 pg
MCHC (3 h): 34.6%
MCV (3 h): 61.8 fL
Mono (3 h): 1.6%
Neu (3 h): 16.6%
PT (3 h): 12 s
Plat (3 h): 118.4 x10_4/uL
RBC (3 h): 610.2 x10_4/ul
Ret (3 h): 7.2%
WBC (3 h): 67.1 x10_2/uL
KIDNEY_L (3 h): 1 g
KIDNEY_R (3 h): 1 g
KIDNEY_TOTAL (3 h): 2 g
LIVER (3 h): 9.5 g
A/G (3 h): 1.6
ALP (3 h): 868.6 IU/L
ALT (3 h): 37.8 IU/L
AST (3 h): 72 IU/L
BUN (3 h): 11 mg/dL
CRE (3 h): 0.4 mg/dL
Ca (3 h): 10.1 mg/dL
Cl (3 h): 102.4 meq/L
DBIL (3 h): 0.06 mg/dL
GLC (3 h): 195.6 mg/dL
IP (3 h): 8.6 mg/dL
K (3 h): 3.6 meq/L
LDH (3 h): 179.2 IU/L
Na (3 h): 140.6 meq/L
PL (3 h): 130.2 mg/dL
RALB (3 h): 3.3 g/dL
TBIL (3 h): 0.1 mg/dL
TC (3 h): 82.6 mg/dL
TG (3 h): 38.6 mg/dL
TP (3 h): 5.4 g/dL
gamma-GTP (3 h): 0.8 IU/L
TERMINAL_BW (6 h): 224.6 g
APTT (6 h): 18.5 s
Bas (6 h): 0.6%
Eos (6 h): 1%
Fbg (6 h): 234.2 mg/dL
Hb (6 h): 13.4 g/dL
Ht (6 h): 38.8%
Lym (6 h): 78.8%
MCH (6 h): 21.8 pg
MCHC (6 h): 34.5%
MCV (6 h): 63.1 fL
Mono (6 h): 2.8%
Neu (6 h): 16.2%
PT (6 h): 12.4 s
Plat (6 h): 135.1 x10_4/uL
RBC (6 h): 615.6 x10_4/ul
Ret (6 h): 7.7%
WBC (6 h): 111.7 x10_2/uL
KIDNEY_L (6 h): 1 g
KIDNEY_R (6 h): 1 g
KIDNEY_TOTAL (6 h): 1.9 g
LIVER (6 h): 9.9 g
A/G (6 h): 1.6
ALP (6 h): 932.2 IU/L
ALT (6 h): 40.6 IU/L
AST (6 h): 78 IU/L
BUN (6 h): 14.2 mg/dL
CRE (6 h): 0.4 mg/dL
Ca (6 h): 10.3 mg/dL
Cl (6 h): 104.2 meq/L
DBIL (6 h): 0.072 mg/dL
GLC (6 h): 186.4 mg/dL
IP (6 h): 8.3 mg/dL
K (6 h): 3.9 meq/L
LDH (6 h): 224 IU/L
Na (6 h): 141 meq/L
PL (6 h): 130.8 mg/dL
RALB (6 h): 3.3 g/dL
TBIL (6 h): 0.1 mg/dL
TC (6 h): 81.4 mg/dL
TG (6 h): 37.8 mg/dL
TP (6 h): 5.4 g/dL
gamma-GTP (6 h): 1.6 IU/L
TERMINAL_BW (9 h): 224.1 g
APTT (9 h): 18.7 s
Bas (9 h): 0.4%
Eos (9 h): 1%
Fbg (9 h): 229 mg/dL
Hb (9 h): 13.7 g/dL
Ht (9 h): 39.6%
Lym (9 h): 79.6%
MCH (9 h): 21.5 pg
MCHC (9 h): 34.4%
MCV (9 h): 62.4 fL
Mono (9 h): 3%
Neu (9 h): 15%
PT (9 h): 12.4 s
Plat (9 h): 126.6 x10_4/uL
RBC (9 h): 635.4 x10_4/ul
Ret (9 h): 7.1%
WBC (9 h): 94.4 x10_2/uL
KIDNEY_L (9 h): 1 g
KIDNEY_R (9 h): 1 g
KIDNEY_TOTAL (9 h): 1.9 g
LIVER (9 h): 10 g
A/G (9 h): 1.7
ALP (9 h): 978.4 IU/L
ALT (9 h): 45.6 IU/L
AST (9 h): 80.4 IU/L
BUN (9 h): 15.4 mg/dL
CRE (9 h): 0.4 mg/dL
Ca (9 h): 10.4 mg/dL
Cl (9 h): 103.4 meq/L
DBIL (9 h): 0.088 mg/dL
GLC (9 h): 186 mg/dL
IP (9 h): 8.6 mg/dL
K (9 h): 3.8 meq/L
LDH (9 h): 191.6 IU/L
Na (9 h): 141.2 meq/L
PL (9 h): 130.4 mg/dL
RALB (9 h): 3.5 g/dL
TBIL (9 h): 0.1 mg/dL
TC (9 h): 76.8 mg/dL
TG (9 h): 44.8 mg/dL
TP (9 h): 5.5 g/dL
gamma-GTP (9 h): 1.4 IU/L
TERMINAL_BW (24 h): 225 g
APTT (24 h): 17.9 s
Bas (24 h): 1%
Eos (24 h): 1%
Fbg (24 h): 217.4 mg/dL
Hb (24 h): 14 g/dL
Ht (24 h): 41.2%
Lym (24 h): 81%
MCH (24 h): 21.6 pg
MCHC (24 h): 33.9%
MCV (24 h): 63.8 fL
Mono (24 h): 3%
Neu (24 h): 13.6%
PT (24 h): 12.7 s
Plat (24 h): 125.9 x10_4/uL
RBC (24 h): 645.6 x10_4/ul
Ret (24 h): 6.7%
WBC (24 h): 95.1 x10_2/uL
KIDNEY_L (24 h): 1 g
KIDNEY_R (24 h): 1 g
KIDNEY_TOTAL (24 h): 2 g
LIVER (24 h): 9.5 g
A/G (24 h): 1.6
ALP (24 h): 918.6 IU/L
ALT (24 h): 37.8 IU/L
AST (24 h): 71 IU/L
BUN (24 h): 12.8 mg/dL
CRE (24 h): 0.4 mg/dL
Ca (24 h): 10.7 mg/dL
Cl (24 h): 103.4 meq/L
DBIL (24 h): 0.084 mg/dL
GLC (24 h): 193 mg/dL
IP (24 h): 9 mg/dL
K (24 h): 3.9 meq/L
LDH (24 h): 212.4 IU/L
Na (24 h): 140.6 meq/L
PL (24 h): 135.8 mg/dL
RALB (24 h): 3.3 g/dL
TBIL (24 h): 0.1 mg/dL
TC (24 h): 78.4 mg/dL
TG (24 h): 47.2 mg/dL
TP (24 h): 5.3 g/dL
gamma-GTP (24 h): 1.4 IU/L
